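Values below derive from 48-hour exposures of cells grown in 96-well plates, with endpoints linearly interpolated between the two concentrations bracketing the appropriate inhibition level. GI50: concentration for 50% inhibition of growth.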 The source made the active and inactive calls. Cut-off read from the data, not from the text of the source: active = GI50 up to about 1.1 µM and inactive = higher.
How the values were obtained:
Test in all cases: NCI anticancer screen, dose series, 48 h
IGROV-1 = tested on: IGROV-1
HOP-62 = tested on: HOP-62
SNB-75 = tested on: SNB-75
M14 = tested on: M14
SW-620 = tested on: SW-620
RXF 393 = tested on: RXF 393
BT-549 = tested on: BT-549
COLO 205 = tested on: COLO 205
CAKI-1 = tested on: CAKI-1
LOX IMVI = tested on: LOX IMVI
UACC-257 = tested on: UACC-257
OVCAR-5 = tested on: OVCAR-5
KM12 = tested on: KM12
UO-31 = tested on: UO-31
Hs-578T = tested on: Hs-578T
MDA-MB-435 = tested on: MDA-MB-435
MOLT-4 = tested on: MOLT-4
A549 = tested on: A549
HCT-15 = tested on: HCT-15
NCI/ADR-RES = tested on: NCI/ADR-RES
HCT-116 = tested on: HCT-116
SNB-19 = tested on: SNB-19
SK-MEL-2 = tested on: SK-MEL-2
HOP-92 = tested on: HOP-92
SK-MEL-5 = tested on: SK-MEL-5
EKVX = tested on: EKVX
TK-10 = tested on: TK-10
OVCAR-4 = tested on: OVCAR-4
MCF7 = tested on: MCF7
NCI-H522 = tested on: NCI-H522
UACC-62 = tested on: UACC-62
A498 = tested on: A498
NCI-H226 = tested on: NCI-H226
OVCAR-8 = tested on: OVCAR-8
HCC 2998 = tested on: HCC 2998
RPMI-8226 = tested on: RPMI-8226
SK-OV-3 = tested on: SK-OV-3
ACHN = tested on: ACHN
SF-539 = tested on: SF-539
HL-60 = tested on: HL-60
K562 = tested on: K562
PC-3 = tested on: PC-3
SK-MEL-28 = tested on: SK-MEL-28
MDA-N = tested on: MDA-N
Malme-3M = tested on: Malme-3M
U-251 = tested on: U-251
HT-29 = tested on: HT-29
SN12C = tested on: SN12C
786-0 = tested on: 786-0
SR = tested on: SR
SF-295 = tested on: SF-295
MDA-MB-231 = tested on: MDA-MB-231
T47D = tested on: T47D
OVCAR-3 = tested on: OVCAR-3
DU-145 = tested on: DU-145
NCI-H460 = tested on: NCI-H460
SF-268 = tested on: SF-268
CCRF-CEM = tested on: CCRF-CEM
NCI-H23 = tested on: NCI-H23

What does the source list for `CCC(C)C1NC(=O)C2CCCN2C(=O)C(CC2CO2)OC(=O)CCNC(=O)C(C)N(C)C(=O)C(C(C)C)N(C)C1=O` (stereo not given)?
GI50 (IGROV-1): 2.14 µM (inactive); GI50 (HOP-62): 0.112 µM (active); GI50 (SNB-75): 0.331 µM (active); GI50 (M14): 0.0182 µM (active); GI50 (SW-620): 0.0478 µM (active); GI50 (RXF 393): 0.0713 µM (active); GI50 (BT-549): < 0.0414 µM (active); GI50 (COLO 205): < 0.0236 µM (active); GI50 (CAKI-1): 0.993 µM (active); GI50 (LOX IMVI): < 0.0208 µM (active); GI50 (UACC-257): < 0.01 µM (active); GI50 (OVCAR-5): 1.43 µM (inactive); GI50 (KM12): 1.06 µM (active); GI50 (UO-31): 7.31 µM (inactive); GI50 (Hs-578T): > 100 µM (inactive); GI50 (MDA-MB-435): 0.111 µM (active); GI50 (MOLT-4): 1.57 µM (inactive); GI50 (A549): 0.197 µM (active); GI50 (HCT-15): 12.8 µM; GI50 (NCI/ADR-RES): > 47.8 µM (inactive); GI50 (HCT-116): < 0.0279 µM (active); GI50 (SNB-19): > 13.4 µM (inactive); GI50 (SK-MEL-2): < 0.0158 µM (active); GI50 (HOP-92): > 8.22 µM (inactive); GI50 (SK-MEL-5): < 0.0169 µM (active); GI50 (EKVX): 35.4 µM (inactive); GI50 (TK-10): > 14 µM (inactive); GI50 (OVCAR-4): 3.11 µM (inactive); GI50 (MCF7): 0.0267 µM (active); GI50 (NCI-H522): 3.3 µM (inactive); GI50 (UACC-62): 0.0209 µM (active); GI50 (A498): > 100 µM (inactive); GI50 (NCI-H226): > 5.08 µM (inactive); GI50 (OVCAR-8): 0.22 µM (active); GI50 (HCC 2998): 21.8 µM (inactive); GI50 (RPMI-8226): 0.968 µM (active); GI50 (SK-OV-3): > 100 µM (inactive); GI50 (ACHN): 0.54 µM (active); GI50 (SF-539): 0.199 µM (active); GI50 (HL-60): < 0.0223 µM (active); GI50 (K562): 0.0946 µM (active); GI50 (PC-3): 0.889 µM (active); GI50 (SK-MEL-28): > 100 µM (inactive); GI50 (MDA-N): 0.181 µM (active); GI50 (Malme-3M): 0.0142 µM (active); GI50 (U-251): 2.75 µM (inactive); GI50 (HT-29): 1.73 µM (inactive); GI50 (SN12C): > 100 µM (inactive); GI50 (786-0): 0.0601 µM (active); GI50 (SR): < 0.024 µM (active); GI50 (SF-295): 0.176 µM (active); GI50 (MDA-MB-231): > 22.9 µM (inactive); GI50 (T47D): 6.05 µM (inactive)

For `O=C1CCCCC/C1=C\c1ccc(Cl)cc1`, which GI50 (IGROV-1) is on record?
Its GI50 is 67.6 µM (inactive).

And the GI50 (HOP-62)?
The GI50 was 99.8 µM (inactive).

What about the GI50 (SNB-75) of the same compound?
Its GI50 is 17 µM (inactive).

What about the GI50 (M14) of the same compound?
The GI50 was 34.4 µM (inactive).

And the GI50 (SW-620)?
The GI50 was 24.7 µM (inactive).

What about the GI50 (BT-549) of the same compound?
Its GI50 is 31.2 µM (inactive).

And the GI50 (COLO 205)?
The GI50 was 18.2 µM (inactive).

And the GI50 (CAKI-1)?
Its GI50 is 37.8 µM (inactive).

And the GI50 (LOX IMVI)?
The GI50 was 28.9 µM (inactive).

What about the GI50 (UACC-257) of the same compound?
The GI50 was 32.4 µM (inactive).

And the GI50 (OVCAR-5)?
Its GI50 is 78.9 µM (inactive).

And the GI50 (KM12)?
Its GI50 is 17.7 µM (inactive).

And the GI50 (UO-31)?
Its GI50 is 27.2 µM (inactive).

What about the GI50 (Hs-578T) of the same compound?
The GI50 was 20.8 µM (inactive).

What about the GI50 (MDA-MB-435) of the same compound?
The GI50 was 20.6 µM (inactive).

What about the GI50 (MOLT-4) of the same compound?
Its GI50 is 26.2 µM (inactive).

What about the GI50 (A549) of the same compound?
The GI50 was 36.1 µM (inactive).

And the GI50 (OVCAR-3)?
Its GI50 is 47.8 µM (inactive).

And the GI50 (DU-145)?
The GI50 was 39.2 µM (inactive).

And the GI50 (NCI-H460)?
The GI50 was 35.2 µM (inactive).

And the GI50 (HCT-15)?
Its GI50 is 28.1 µM.

And the GI50 (HCT-116)?
The GI50 was 35.4 µM (inactive).

What about the GI50 (SNB-19) of the same compound?
Its GI50 is 55.1 µM (inactive).

What about the GI50 (SK-MEL-2) of the same compound?
Its GI50 is 34.8 µM (inactive).

What about the GI50 (HOP-92) of the same compound?
Its GI50 is 35.7 µM (inactive).

What about the GI50 (SK-MEL-5) of the same compound?
The GI50 was 13.9 µM (inactive).

What about the GI50 (SF-268) of the same compound?
The GI50 was 14.5 µM (inactive).

And the GI50 (CCRF-CEM)?
The GI50 was 22.6 µM (inactive).

What about the GI50 (EKVX) of the same compound?
The GI50 was 44.3 µM (inactive).

What about the GI50 (TK-10) of the same compound?
Its GI50 is 28.1 µM (inactive).

What about the GI50 (OVCAR-4) of the same compound?
The GI50 was 26.7 µM (inactive).

And the GI50 (NCI-H522)?
Its GI50 is 25.4 µM (inactive).

And the GI50 (UACC-62)?
Its GI50 is 25.2 µM (inactive).

What about the GI50 (A498) of the same compound?
Its GI50 is 33 µM (inactive).

What about the GI50 (NCI-H226) of the same compound?
Its GI50 is 81.1 µM (inactive).

What about the GI50 (HCC 2998) of the same compound?
Its GI50 is 26.2 µM (inactive).

And the GI50 (RPMI-8226)?
Its GI50 is 25.4 µM (inactive).

What about the GI50 (SK-OV-3) of the same compound?
Its GI50 is 60 µM (inactive).

And the GI50 (ACHN)?
The GI50 was 32.1 µM (inactive).

What about the GI50 (PC-3) of the same compound?
Its GI50 is 19.9 µM (inactive).

What about the GI50 (SK-MEL-28) of the same compound?
The GI50 was 49.3 µM (inactive).

And the GI50 (NCI-H23)?
The GI50 was 31.6 µM (inactive).

And the GI50 (MDA-N)?
Its GI50 is 28.6 µM (inactive).

What about the GI50 (Malme-3M) of the same compound?
The GI50 was 52.6 µM (inactive).

What about the GI50 (U-251) of the same compound?
Its GI50 is 30 µM (inactive).

What about the GI50 (HT-29) of the same compound?
Its GI50 is 21.8 µM (inactive).

And the GI50 (SN12C)?
Its GI50 is 35.3 µM (inactive).

And the GI50 (786-0)?
The GI50 was 32.4 µM (inactive).

And the GI50 (SR)?
Its GI50 is 23.1 µM (inactive).

And the GI50 (SF-295)?
The GI50 was 22 µM (inactive).

And the GI50 (MDA-MB-231)?
Its GI50 is 73.6 µM (inactive).

And the GI50 (T47D)?
Its GI50 is 37.3 µM (inactive).

— ChEMBL document CHEMBL1201862, “PubChem BioAssay data set” (2004)
